{"source": "ChEMBL document CHEMBL3352057", "about": "“Novel fluorinated pyrrolo[1,2-a]pyrazine-2,6-dione derivatives: synthesis and anticonvulsant evaluation in animal models of epilepsy” (Bioorg Med Chem, 2014)", "key": {"[1]": {"system": "Rattus norvegicus", "assay": "Anticonvulsant activity in ip dosed Sprague-Dawley rat assessed as protection against subcutaneous metrazol-induced seizures measured at 0.25 hr post dose", "type": "functional"}, "[2]": {"system": "Rattus norvegicus", "assay": "Anticonvulsant activity in ip dosed Sprague-Dawley rat assessed as protection against subcutaneous metrazol-induced seizures", "type": "functional"}, "[3]": {"system": "Mus musculus", "assay": "Anticonvulsant activity in ip dosed corneal kindled albino CF1 mouse seizure model", "type": "functional"}, "[4]": {"assay": "Neurotoxicity in ip dosed Sprague-Dawley rat measured at 0.25 hr post dose", "type": "toxicity, organism-based", "details": "in vivo"}, "[5]": {"assay": "Protective index, ratio of TD50 for neurotoxicity in ip dosed Sprague-Dawley rat to ED50 for anticonvulsant activity in ip dosed MES Sprague-Dawley rat model", "type": "toxicity, organism-based", "details": "in vivo, read-out: Ratio TD50/ED50"}, "[6]": {"system": "Mus musculus", "assay": "Anticonvulsant activity in ip dosed corneal kindled albino CF1 mouse seizure model assessed as time to peak effect", "type": "functional"}, "[7]": {"system": "Rattus norvegicus", "assay": "Anticonvulsant activity in ip dosed Sprague-Dawley rat assessed as protection against maximal electroshock-induced seizures", "type": "functional"}, "[8]": {"system": "Rattus norvegicus", "assay": "Anticonvulsant activity in ip dosed Sprague-Dawley rat assessed as protection against maximal electroshock-induced seizures measured as time to peak effect", "type": "functional"}}}
{"smiles": "CCCC(CCC)C(=O)[O-].[Na+]", "note": "[VALPROATE SODIUM]", "values": [{"measurement": "ED50", "setting": "[1]", "value": 1420, "unit": "µmol/kg"}, {"measurement": "ED50", "setting": "[2]", "value": 1420, "unit": "µmol/kg"}, {"measurement": "ED50", "setting": "[3]", "value": 948, "unit": "µmol/kg"}, {"measurement": "TD50 at 0.25 h", "setting": "[4]", "value": 1910, "unit": "µmol/kg"}, {"measurement": "selectivity ratio", "setting": "[5]", "value": 2.1}, {"measurement": "Time", "setting": "[6]", "value": 0.5, "unit": "h"}, {"measurement": "ED50", "setting": "[7]", "value": 890, "unit": "µmol/kg"}, {"measurement": "Time", "setting": "[8]", "value": 0.5, "unit": "h"}]}
